Measurements as given in PubChem BioAssay (NCI).
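Protocol summary: plate cells (96-well), add compound at 5 concentrations, incubate 48 h, interpolate endpoints linearly. TGI: total growth inhibition.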

Assays:
Assay in all cases: NCI anticancer screen, dose series, 48 h
[1] = system: A498 renal
[2] = system: COLO 205 colon
[3] = system: EKVX NSCLC
[4] = system: OVCAR-3 ovarian
[5] = system: PC-3 prostate
[6] = system: SF-268 CNS
[7] = system: SK-MEL-2 melanoma
[8] = system: SK-MEL-28 melanoma
[9] = system: T-47D breast
[10] = system: BT-549 breast

| Structure (SMILES) | TGI [1] | TGI [2] | TGI [3] | TGI [4] | TGI [5] | TGI [6] | TGI [7] | TGI [8] | TGI [9] | TGI [10] |
| --- | --- | --- | --- | --- | --- | --- | --- | --- | --- | --- |
| N#C/C(C(=O)NCc1ccccc1)=C(/N)N1CCCC1 | > 100 µM | > 100 µM | > 100 µM | > 100 µM | > 100 µM | > 100 µM | > 100 µM | > 100 µM | > 100 µM | – |
| N#Cc1c(-c2ccc([N+](=O)[O-])cc2)c(C#N)c(=O)n(NS(=O)(=O)c2ccccc2)c1O | > 100 µM | > 100 µM | > 100 µM | > 100 µM | > 100 µM | – | > 100 µM | > 100 µM | – | > 100 µM |
| C/C(=C\CSCC(N)C(=O)O)CC/C=C(\C)CNc1ccccc1 (centres undefined) | – | > 100 µM | > 100 µM | > 100 µM | > 100 µM | > 100 µM | > 100 µM | > 100 µM | > 100 µM | > 100 µM |
| COc1ccc([C@]23CCC4(OCC(C)(C)CO4)[C@H]4CON(O[C@H](O[C@@H]5CCCCC5C(C)(C)c5ccccc5)C2)[C@@H]43)cc1OC (some centres undefined) | > 100 µM | > 100 µM | > 100 µM | > 100 µM | > 100 µM | – | > 100 µM | > 100 µM | > 100 µM | > 100 µM |
| CCCCNC(=O)Cn1c2ccc(Br)cc2c2nc3ccccc3nc21 | > 100 µM | > 100 µM | – | > 100 µM | > 100 µM | > 100 µM | > 100 µM | > 100 µM | > 100 µM | – |
| Clc1ccc(/C(=C/c2ccccc2)Cn2ccnc2)cc1 | 77.7 µM | 38.5 µM | > 100 µM | – | 94 µM | > 100 µM | 40.8 µM | > 100 µM | > 100 µM | 96.2 µM |
| COc1cc2c(c(OC)c1)[C@H](C)N(Cc1ccccc1)C(C)C2 (some centres undefined) | > 100 µM | > 100 µM | > 100 µM | – | > 100 µM | > 100 µM | – | > 100 µM | > 100 µM | > 100 µM |
| CN1C2=Nc3n(c4ccccc4[n+]3C)CN2c2ccccc21 | – | 41.9 µM | > 100 µM | 34.7 µM | > 100 µM | 44.1 µM | 41.8 µM | – | 55.1 µM | > 100 µM |
| O=c1c2c3c(sc2nc2n1N=C(c1ccc(Br)cc1)CS2)CCCC3 | > 100 µM | > 100 µM | > 100 µM | > 100 µM | > 100 µM | > 100 µM | – | > 100 µM | > 100 µM | > 100 µM |
| CCOC(=O)[C@@H](Cc1ccc(CCl)cc1)NC(C)=O | – | 43.9 µM | 54.9 µM | > 100 µM | > 100 µM | 67 µM | 39.6 µM | 86.2 µM | 93.7 µM | > 100 µM |
| CC(C)(C)/C(O)=C\c1nc2cc(F)c(F)cc2[nH]c1=O | > 100 µM | > 100 µM | > 100 µM | – | > 100 µM | > 100 µM | > 100 µM | > 100 µM | > 100 µM | > 100 µM |
| O=c1c2ccc(Cl)cc2oc2c(CNc3ccc(S(=O)(=O)Nc4ncccn4)cc3)cccc12 | > 100 µM | > 100 µM | > 100 µM | > 100 µM | > 100 µM | – | > 100 µM | > 100 µM | > 100 µM | > 100 µM |
